We go through two compounds from ChEMBL document CHEMBL1133203, “Synthesis of L-(+)-3-(3-hydroxy-4-pivaloyloxybenzyl)-2,5-diketomorpholine as potential prodrug of L-dopa” (Bioorg Med Chem Lett, 2000).

≈ marks a conversion by molar mass, not a printed value.

The nature of data set [1]: Rate constant in chemical and enzymatic hydrolysis to form L-DOPA, in 80% human plasma. The data set is classed as ADME, cell-free.
The nature of data set [2]: Partition coefficient is determined in octanol/buffer solution at pH 7.4. It is filed as physicochemical.
A short description of data set [3]: Rate constant in chemical and enzymatic hydrolysis, in buffer at pH 7.4. The data set is classed as ADME.
A short description of data set [4]: Rate constant in chemical and enzymatic hydrolysis to form another compound (8)*, in 80% human plasma (experiment 2). The data set is classed as ADME, cell-free.
A short description of data set [5]: Half-life in chemical and enzymatic hydrolysis, in buffer at pH 1.3. It is filed as ADME.
A short description of data set [6]: Aqueous solubility was evaluated. The conditions noted are these: buffer. The data set is classed as physicochemical.
A short description of data set [7]: Half-life in chemical and enzymatic hydrolysis, in 80% rat plasma. It is filed as ADME.
The nature of data set [8]: Rate constant in chemical and enzymatic hydrolysis to form another compound (8)*, in 80% human plasma (experiment 1). It is filed as ADME, cell-free.
A short description of data set [9]: Half-life in chemical and enzymatic hydrolysis, in buffer at pH 7.4. The data set is classed as ADME.
Data set [10] is described as follows: Rate constant in chemical and enzymatic hydrolysis, in buffer at pH 1.3. The data set is classed as ADME.
The species named for another data set is Rattus norvegicus. The data set can be described thus: Rate constant in chemical and enzymatic hydrolysis, in 80% rat plasma. The data set is classed as ADME.

For the compound `O=C1COC(=O)[C@H](Cc2ccc(O)c(O)c2)N1`, in data set [1], the K obs was 0.0047 min⁻¹.

As for `CC(C)(C)C(=O)Oc1ccc(C[C@@H]2NC(=O)COC2=O)cc1O`, in data set [2], the logD (commonly the decadic logarithm of the distribution of all forms, ionised or not, between an organic phase and buffer at a given pH) turned out to be 2.15. Further, the K obs in data set [3] turned out to be 0.0075 min⁻¹; in data set [4], 0.019 min⁻¹; in [8], 0.019 min⁻¹; in data set [10], 0.00022 min⁻¹; in the data set filed under Rattus norvegicus, 0.29 min⁻¹. The half-life (commonly how long it takes for the measured level to halve) was 52.3 h in data set [5], 2.7 min in data set [7] and 1.55 h in data set [9]. The solubility (in general, the concentration that dissolves in the medium under given conditions) in data set [6] was 50 µg/mL (≈ 156 µM).
